One block for each compound: values may come before it.
Columns and labels:
Experiment in all cases: Off-chip Mobility Shift Assay (MSA) kinase inhibition
Type in all cases: biochemical
SRM = target: T1, SRM (Homo sapiens, UniProt Q9H3Y6)
T1 construct: purchased Carna Biosciences
Description: (§1) Off-chip Mobility Shift Assay (MSA) by Cama Biosciences, Inc (Natick, Mass.) a used for measuring the kinase activity and inhibition. • 1) The 5 μL of x4 compound solution, 5 μL of x4 Substrate/ATP/Metal solution, and 10 μL of x2 kinase solution were prepared with assay buffer (20 mM HEPES, 0.01% Triton X100, 2 mM DTT, pH 7.5) and mixed and incubated in a well of polypropylene 384 well microplate for 1 or 5 hour(s)* at room temperature.

BRAF(V600E) = target: T2, BRAF(V600E) (Homo sapiens, UniProt P15056, V600E); settings: inhibitor concentration 0.01 μM; 0.01 µM
T2 construct: purchased Carna Biosciences
Description: as §1

KIT = target: T3, KIT (Homo sapiens, UniProt P10721)
T3 construct: purchased Carna Biosciences
T3 sequence (P10721 26-976): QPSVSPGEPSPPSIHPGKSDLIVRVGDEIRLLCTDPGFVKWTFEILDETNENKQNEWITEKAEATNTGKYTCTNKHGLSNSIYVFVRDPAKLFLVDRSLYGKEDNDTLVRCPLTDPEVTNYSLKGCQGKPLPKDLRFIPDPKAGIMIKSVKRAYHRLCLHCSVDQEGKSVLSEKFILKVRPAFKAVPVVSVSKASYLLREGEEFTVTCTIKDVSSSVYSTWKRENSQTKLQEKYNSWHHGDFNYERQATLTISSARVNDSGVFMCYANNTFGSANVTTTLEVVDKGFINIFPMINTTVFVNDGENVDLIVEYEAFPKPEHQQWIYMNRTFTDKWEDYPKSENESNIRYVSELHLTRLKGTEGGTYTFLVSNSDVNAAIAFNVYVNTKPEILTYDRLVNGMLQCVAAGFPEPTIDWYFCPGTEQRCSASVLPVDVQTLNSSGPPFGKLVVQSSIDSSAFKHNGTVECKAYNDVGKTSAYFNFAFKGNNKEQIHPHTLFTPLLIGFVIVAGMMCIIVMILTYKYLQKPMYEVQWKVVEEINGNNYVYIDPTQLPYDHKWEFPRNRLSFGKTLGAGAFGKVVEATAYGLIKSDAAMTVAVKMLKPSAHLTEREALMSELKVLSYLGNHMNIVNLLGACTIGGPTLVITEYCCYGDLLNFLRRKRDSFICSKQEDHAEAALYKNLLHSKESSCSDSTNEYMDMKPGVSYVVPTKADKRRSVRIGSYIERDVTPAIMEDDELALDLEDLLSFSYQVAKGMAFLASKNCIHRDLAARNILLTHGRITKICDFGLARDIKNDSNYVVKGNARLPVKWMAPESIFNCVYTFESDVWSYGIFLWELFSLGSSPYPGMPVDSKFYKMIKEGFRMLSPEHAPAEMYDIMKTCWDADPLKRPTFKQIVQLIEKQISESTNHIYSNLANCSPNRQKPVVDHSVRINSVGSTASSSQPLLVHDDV
Description: as §1

JAK1 = target: T4, JAK1 (Homo sapiens, UniProt P23458)
T4 construct: purchased Carna Biosciences
T4 sequence (P23458 whole entry): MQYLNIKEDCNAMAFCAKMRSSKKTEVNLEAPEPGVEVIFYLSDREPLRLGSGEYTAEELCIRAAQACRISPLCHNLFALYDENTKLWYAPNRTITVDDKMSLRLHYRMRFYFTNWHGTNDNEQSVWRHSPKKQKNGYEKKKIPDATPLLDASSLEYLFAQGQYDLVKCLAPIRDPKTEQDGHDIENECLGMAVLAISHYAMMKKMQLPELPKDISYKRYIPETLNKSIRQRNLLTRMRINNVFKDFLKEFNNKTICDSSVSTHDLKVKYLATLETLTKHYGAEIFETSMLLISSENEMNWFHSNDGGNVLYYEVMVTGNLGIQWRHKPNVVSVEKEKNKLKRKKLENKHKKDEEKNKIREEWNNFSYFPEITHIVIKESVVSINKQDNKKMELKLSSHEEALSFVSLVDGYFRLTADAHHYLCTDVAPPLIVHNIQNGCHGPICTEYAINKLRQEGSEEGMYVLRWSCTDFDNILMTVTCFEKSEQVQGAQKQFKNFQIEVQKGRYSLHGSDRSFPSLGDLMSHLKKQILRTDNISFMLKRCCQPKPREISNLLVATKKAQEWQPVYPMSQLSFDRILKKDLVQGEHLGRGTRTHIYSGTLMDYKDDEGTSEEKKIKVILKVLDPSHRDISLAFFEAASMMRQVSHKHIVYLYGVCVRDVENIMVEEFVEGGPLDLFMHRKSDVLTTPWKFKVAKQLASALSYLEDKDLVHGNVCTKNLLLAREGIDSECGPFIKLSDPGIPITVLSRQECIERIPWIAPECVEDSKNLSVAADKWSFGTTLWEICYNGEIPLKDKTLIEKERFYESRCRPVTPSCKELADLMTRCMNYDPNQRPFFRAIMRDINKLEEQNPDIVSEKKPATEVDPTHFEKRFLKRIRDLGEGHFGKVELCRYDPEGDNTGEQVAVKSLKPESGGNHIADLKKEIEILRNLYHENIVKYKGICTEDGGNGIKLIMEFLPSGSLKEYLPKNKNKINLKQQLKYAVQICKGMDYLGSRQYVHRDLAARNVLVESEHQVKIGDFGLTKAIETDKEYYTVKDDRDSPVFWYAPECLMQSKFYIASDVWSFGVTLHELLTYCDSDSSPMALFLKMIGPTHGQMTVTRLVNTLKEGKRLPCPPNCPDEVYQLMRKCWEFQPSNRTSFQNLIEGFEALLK
Description: as §1

JAK3 = target: T5, JAK3 (Homo sapiens, UniProt P52333)
T5 construct: purchased Carna Biosciences
T5 sequence (P52333 1-1124): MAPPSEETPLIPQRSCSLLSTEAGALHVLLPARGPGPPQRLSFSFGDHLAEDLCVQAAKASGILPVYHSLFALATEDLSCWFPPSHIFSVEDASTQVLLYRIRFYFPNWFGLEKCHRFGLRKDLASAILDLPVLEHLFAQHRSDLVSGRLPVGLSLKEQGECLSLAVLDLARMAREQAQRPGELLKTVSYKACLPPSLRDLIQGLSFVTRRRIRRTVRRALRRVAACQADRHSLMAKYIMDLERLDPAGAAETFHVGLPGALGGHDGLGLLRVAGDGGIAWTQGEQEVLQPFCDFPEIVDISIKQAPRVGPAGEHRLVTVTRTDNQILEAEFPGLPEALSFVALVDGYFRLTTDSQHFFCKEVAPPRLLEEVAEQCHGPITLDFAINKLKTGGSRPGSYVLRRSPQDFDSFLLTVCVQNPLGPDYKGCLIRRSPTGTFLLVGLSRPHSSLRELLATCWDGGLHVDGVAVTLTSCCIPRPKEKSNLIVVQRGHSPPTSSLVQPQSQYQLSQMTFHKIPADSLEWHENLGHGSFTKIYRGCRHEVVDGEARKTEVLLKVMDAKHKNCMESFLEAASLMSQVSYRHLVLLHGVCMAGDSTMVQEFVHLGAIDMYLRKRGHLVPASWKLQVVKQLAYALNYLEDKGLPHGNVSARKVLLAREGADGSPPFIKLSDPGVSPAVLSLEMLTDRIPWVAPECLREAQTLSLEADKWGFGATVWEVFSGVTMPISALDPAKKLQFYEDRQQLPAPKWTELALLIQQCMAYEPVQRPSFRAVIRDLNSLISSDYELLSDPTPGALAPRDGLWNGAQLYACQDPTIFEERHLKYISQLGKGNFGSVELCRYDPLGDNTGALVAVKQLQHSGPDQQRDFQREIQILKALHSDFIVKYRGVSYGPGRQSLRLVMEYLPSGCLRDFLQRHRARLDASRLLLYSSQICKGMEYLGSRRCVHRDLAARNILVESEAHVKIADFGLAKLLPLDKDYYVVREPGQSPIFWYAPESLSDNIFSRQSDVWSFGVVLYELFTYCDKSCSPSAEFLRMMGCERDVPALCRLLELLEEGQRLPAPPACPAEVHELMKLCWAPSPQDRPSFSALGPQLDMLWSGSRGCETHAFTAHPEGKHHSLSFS
Description: as §1

PDGFRβ = target: T6, PDGFRβ (Homo sapiens, UniProt P09619)
T6 construct: purchased Carna Biosciences
T6 sequence (P09619 33-1106): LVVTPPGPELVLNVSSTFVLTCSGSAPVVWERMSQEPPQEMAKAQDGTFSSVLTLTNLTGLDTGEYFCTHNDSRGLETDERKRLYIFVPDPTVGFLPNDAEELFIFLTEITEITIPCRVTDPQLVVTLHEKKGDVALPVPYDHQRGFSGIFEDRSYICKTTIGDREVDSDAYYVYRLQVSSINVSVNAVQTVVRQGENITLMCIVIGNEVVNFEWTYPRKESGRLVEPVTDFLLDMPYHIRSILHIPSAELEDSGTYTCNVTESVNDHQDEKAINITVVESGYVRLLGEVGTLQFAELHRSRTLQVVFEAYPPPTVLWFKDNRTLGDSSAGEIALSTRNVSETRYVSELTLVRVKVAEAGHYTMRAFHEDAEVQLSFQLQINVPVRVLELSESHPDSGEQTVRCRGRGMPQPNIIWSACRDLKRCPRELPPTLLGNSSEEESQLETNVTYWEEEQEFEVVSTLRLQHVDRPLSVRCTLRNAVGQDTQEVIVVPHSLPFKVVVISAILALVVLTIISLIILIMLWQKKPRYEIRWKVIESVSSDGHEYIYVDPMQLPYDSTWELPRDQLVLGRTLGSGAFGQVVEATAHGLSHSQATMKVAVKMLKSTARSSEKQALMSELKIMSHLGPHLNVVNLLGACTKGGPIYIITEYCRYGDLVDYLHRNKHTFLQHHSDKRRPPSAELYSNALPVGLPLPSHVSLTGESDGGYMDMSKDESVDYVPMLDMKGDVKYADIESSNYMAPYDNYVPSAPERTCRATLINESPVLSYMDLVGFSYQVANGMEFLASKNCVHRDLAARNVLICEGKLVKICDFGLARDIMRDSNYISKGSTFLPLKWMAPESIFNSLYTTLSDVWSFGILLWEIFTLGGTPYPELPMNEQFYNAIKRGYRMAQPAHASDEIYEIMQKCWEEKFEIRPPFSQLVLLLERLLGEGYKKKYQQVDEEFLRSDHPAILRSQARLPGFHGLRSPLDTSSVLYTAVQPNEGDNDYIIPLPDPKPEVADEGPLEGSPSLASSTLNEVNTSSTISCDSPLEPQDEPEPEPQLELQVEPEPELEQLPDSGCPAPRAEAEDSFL
Description: as §1

KIT(D816V) = target: T7, KIT(D816V) (Homo sapiens, UniProt P10721, D816V)
T7 construct: purchased Carna Biosciences
T7 sequence (P10721 26-976 D816V): as the sequence (P10721 26-976) above, with D791V counted along it
Description: as §1

FGR = target: T8, FGR (Homo sapiens, UniProt P09769)
T8 construct: purchased Carna Biosciences
T8 sequence (P09769 whole entry): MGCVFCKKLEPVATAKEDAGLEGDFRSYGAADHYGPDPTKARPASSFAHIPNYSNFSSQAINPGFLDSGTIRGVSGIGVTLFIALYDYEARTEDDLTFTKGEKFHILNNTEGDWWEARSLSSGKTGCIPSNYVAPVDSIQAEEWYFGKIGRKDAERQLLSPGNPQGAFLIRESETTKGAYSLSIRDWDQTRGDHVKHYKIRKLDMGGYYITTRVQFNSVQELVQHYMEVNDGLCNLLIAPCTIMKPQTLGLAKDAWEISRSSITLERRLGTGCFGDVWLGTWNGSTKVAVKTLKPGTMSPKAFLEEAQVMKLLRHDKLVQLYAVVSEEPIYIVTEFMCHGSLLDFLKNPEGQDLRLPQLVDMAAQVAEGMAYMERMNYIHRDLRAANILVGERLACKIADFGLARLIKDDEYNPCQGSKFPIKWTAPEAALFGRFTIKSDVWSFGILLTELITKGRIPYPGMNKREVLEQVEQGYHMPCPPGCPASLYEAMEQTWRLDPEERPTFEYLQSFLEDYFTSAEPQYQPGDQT
Description: as §1

MNK2 = target: T9, MNK2 (Homo sapiens, UniProt Q9HBH9); settings: inhibitor concentration 0.1 μM
T9 construct: purchased Carna Biosciences
Description: as §1

ROS = target: T10, ROS (Homo sapiens, UniProt P08922); settings: inhibitor concentration 0.1 μM
T10 construct: purchased Carna Biosciences
Description: as §1

AKT2 = target: T11, AKT2 (Homo sapiens, UniProt P31751); settings: inhibitor concentration 0.1 μM
T11 construct: purchased Carna Biosciences
T11 sequence (P31751 whole entry): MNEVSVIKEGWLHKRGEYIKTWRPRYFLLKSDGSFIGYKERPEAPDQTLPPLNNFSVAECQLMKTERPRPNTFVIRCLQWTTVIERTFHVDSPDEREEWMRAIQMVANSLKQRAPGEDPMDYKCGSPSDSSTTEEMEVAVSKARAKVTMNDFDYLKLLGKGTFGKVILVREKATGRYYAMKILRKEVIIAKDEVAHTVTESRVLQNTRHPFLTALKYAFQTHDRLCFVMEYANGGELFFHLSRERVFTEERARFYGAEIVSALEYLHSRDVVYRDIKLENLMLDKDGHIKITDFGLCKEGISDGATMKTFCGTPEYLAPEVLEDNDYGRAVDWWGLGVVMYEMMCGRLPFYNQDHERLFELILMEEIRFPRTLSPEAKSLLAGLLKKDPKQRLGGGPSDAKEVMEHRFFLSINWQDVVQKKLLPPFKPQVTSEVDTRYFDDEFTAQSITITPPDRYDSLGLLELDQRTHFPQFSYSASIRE
Description: as §1

HER4 = target: T12, HER4 (Homo sapiens, UniProt Q15303); settings: inhibitor concentration 0.1 μM
T12 construct: purchased Carna Biosciences
Description: as §1

EGFR(L858R) = target: T13, EGFR(L858R) (Homo sapiens, UniProt P00533, L858R); settings: inhibitor concentration 0.1 μM
T13 construct: purchased Carna Biosciences
Description: as §1

RET = target: T14, RET (Homo sapiens, UniProt P07949); settings: inhibitor concentration 0.1 μM
T14 construct: purchased Carna Biosciences
Description: as §1

MAP2K1 = target: T15, MAP2K1 (Homo sapiens, UniProt Q02750); settings: inhibitor concentration 0.1 μM
T15 construct: purchased Carna Biosciences
Description: as §1

LYNa = target: T16, LYNa (Homo sapiens, UniProt P07948); settings: inhibitor concentration 0.1 μM
T16 construct: purchased Carna Biosciences
Description: as §1

MAP2K2 = target: T17, MAP2K2 (Homo sapiens, UniProt P36507); settings: inhibitor concentration 0.1 μM
T17 construct: purchased Carna Biosciences
Description: as §1

Erk5 = target: T18, Erk5 (Homo sapiens, UniProt Q13164); settings: inhibitor concentration 0.1 μM
T18 construct: purchased Carna Biosciences
Description: as §1

ALK = target: T19, ALK (Homo sapiens, UniProt Q9UM73); settings: inhibitor concentration 0.1 μM
T19 construct: purchased Carna Biosciences
Description: as §1

JNK1 = target: T20, JNK1 (Homo sapiens, UniProt P45983); settings: inhibitor concentration 0.1 μM
T20 construct: purchased Carna Biosciences
Description: as §1

ABL = target: T21, ABL (Homo sapiens, UniProt P00519); settings: inhibitor concentration 0.1 μM
T21 construct: purchased Carna Biosciences
Description: as §1

LYNb = target: T22, LYNb (Homo sapiens, UniProt P07948); settings: inhibitor concentration 0.1 μM
T22 construct: purchased Carna Biosciences
Description: as §1

FGFR3 = target: T23, FGFR3 (Homo sapiens, UniProt P22607); settings: inhibitor concentration 0.1 μM
T23 construct: purchased Carna Biosciences
Description: as §1

IGF1R = target: T24, IGF1R (Homo sapiens, UniProt P08069); settings: inhibitor concentration 0.1 μM
T24 construct: purchased Carna Biosciences
Description: as §1

[1] = inhibitor concentration 0.01 μM, 0.01 µM

T1 sequence (Q9H3Y6 whole entry): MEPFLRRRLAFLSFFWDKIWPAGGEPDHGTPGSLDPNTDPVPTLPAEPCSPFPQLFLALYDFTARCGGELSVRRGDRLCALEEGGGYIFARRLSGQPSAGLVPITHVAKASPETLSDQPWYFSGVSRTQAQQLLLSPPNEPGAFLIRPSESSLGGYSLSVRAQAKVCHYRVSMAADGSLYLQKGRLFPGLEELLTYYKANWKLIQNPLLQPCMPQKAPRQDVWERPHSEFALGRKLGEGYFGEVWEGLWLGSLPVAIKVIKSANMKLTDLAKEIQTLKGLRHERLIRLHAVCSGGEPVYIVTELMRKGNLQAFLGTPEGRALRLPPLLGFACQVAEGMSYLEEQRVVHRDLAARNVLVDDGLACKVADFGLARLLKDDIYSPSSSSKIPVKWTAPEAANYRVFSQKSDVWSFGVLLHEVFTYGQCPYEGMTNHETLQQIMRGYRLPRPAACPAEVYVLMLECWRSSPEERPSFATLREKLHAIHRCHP

SRM inhibition (SRM; [1]): >20%
BRAF(V600E) inhibition (BRAF(V600E)): <20%
KIT inhibition (KIT; [1]): <20%
JAK1 inhibition (JAK1; [1]): <20%
JAK3 inhibition (JAK3; [1]): <20%
PDGFRβ inhibition (PDGFRβ; [1]): <20%
KIT(D816V) inhibition (KIT(D816V); [1]): <20%
FGR inhibition (FGR; [1]): >20%
Compound: C/C=C/S(=O)(=O)Nc1ccc(F)c(C(=O)c2c[nH]c3ncc(-c4ccc(Cl)cc4)cc23)c1F [200-93b]

Compound: CC(O)CS(=O)(=O)Nc1ccc(F)c(C(=O)c2c[nH]c3ncc(-c4ccc(Cl)cc4)cc23)c1F (stereo not shown) [200-115]
inhibition at 0.1 µM (MNK2): < 30%
inhibition at 0.1 µM (ROS): < 30%
inhibition at 0.1 µM (SRM; inhibitor concentration 0.1 μM): > 30%
inhibition at 0.1 µM (KIT; inhibitor concentration 0.1 μM): < 30%
inhibition at 0.1 µM (AKT2): < 30%
inhibition at 0.1 µM (JAK1; inhibitor concentration 0.1 μM): < 30%
inhibition at 0.1 µM (JAK3; inhibitor concentration 0.1 μM): < 30%
inhibition at 0.1 µM (HER4): < 30%
inhibition at 0.1 µM (EGFR(L858R)): < 30%
inhibition at 0.1 µM (RET): < 30%
inhibition at 0.1 µM (MAP2K1): < 30%
inhibition at 0.1 µM (LYNa): < 30%
inhibition at 0.1 µM (MAP2K2): < 30%
inhibition at 0.1 µM (Erk5): < 30%
inhibition at 0.1 µM (PDGFRβ; inhibitor concentration 0.1 μM): < 30%
inhibition at 0.1 µM (ALK): < 30%
inhibition at 0.1 µM (JNK1): < 30%
inhibition at 0.1 µM (ABL): < 30%
inhibition at 0.1 µM (KIT(D816V); inhibitor concentration 0.1 μM): < 30%
inhibition at 0.1 µM (LYNb): < 30%
inhibition at 0.1 µM (FGFR3): < 30%
inhibition at 0.1 µM (FGR; inhibitor concentration 0.1 μM): > 30%
inhibition at 0.1 µM (IGF1R): < 30%

Reference: US10106538B2, “Inhibitors of protein kinases” (PRINCETON DRUG DISCOVERY INC, priority 2015, dated 2018)
